Results as given in patent publication US20260001879A1, “COMPOUNDS AS MYT1 INHIBITORS” (WIGEN BIOMMEDICINE TECHNOLOGY (SHANGHAI) CO., LTD., priority 2022, published 2026).
In brackets after ≈: the same amount, converted by molar mass. Like-named read-outs stand apart in the source and are kept apart here.

How the values were obtained:
[1] = target: recombinant protein MYT1 (Homo sapiens (Human), UniProt Q99640); assay: In vitro assay for inhibiting MYT1 kinase activity (ADP-GLO); type: biochemical; conditions: 10 μM ATP, read-out: Inhibitory activity against recombinant protein MYT1 IC50
Chain of recombinant protein MYT1 (Q99640 whole entry): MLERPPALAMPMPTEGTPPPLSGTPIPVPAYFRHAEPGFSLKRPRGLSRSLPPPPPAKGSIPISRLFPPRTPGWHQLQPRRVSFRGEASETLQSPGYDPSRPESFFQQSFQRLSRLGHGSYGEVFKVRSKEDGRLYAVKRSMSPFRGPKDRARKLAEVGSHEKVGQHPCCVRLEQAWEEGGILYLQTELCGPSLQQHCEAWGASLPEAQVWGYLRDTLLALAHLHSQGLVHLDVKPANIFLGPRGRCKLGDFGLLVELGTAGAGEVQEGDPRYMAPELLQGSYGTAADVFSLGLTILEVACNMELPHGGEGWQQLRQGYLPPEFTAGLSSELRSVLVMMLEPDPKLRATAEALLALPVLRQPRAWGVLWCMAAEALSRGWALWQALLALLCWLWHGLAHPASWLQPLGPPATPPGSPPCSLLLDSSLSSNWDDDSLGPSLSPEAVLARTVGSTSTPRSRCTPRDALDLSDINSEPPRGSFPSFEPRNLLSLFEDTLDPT
Method: Recombinant MYT1 protein and the compounds were pre-incubated at room temperature for 15 min, and 10 μM ATP was then added to start the reaction. The mixture was incubated at room temperature for another 60 min, and the ADP-GLO reagent from Promega was then added. The resulting mixture was incubated in the dark for 40 min, a detection solution was then added, and the mixture was incubated for another 45-60 min. The chemiluminescence was determined using ENVISION. The inhibition rate and IC50 were calculated compared to the DMSO group.

[2] = test system: MIA PaCa-2 cells; assay: In vitro anti-proliferative activity against MIA PaCa-2 cells (compound alone); type: cell-based; conditions: intracellular ATP content
Method: MIA PaCa-2 cells were seeded on a 384-well plate at 3000 cells/well. After overnight adherence culture, DMSO or the compounds serially diluted 1:5 from 10 μM were added. The viability was assessed 72 h after dosing by measuring the intracellular ATP content. The inhibition percentage of viable cells by the compounds was calculated by comparing with the DMSO group, and the IC50 value was calculated.

[3] = test system: MIA PaCa-2 cells; assay: In vitro anti-proliferative activity in combination with gemcitabine against MIA PaCa-2 cells; type: cell-based
Method: MIA PaCa-2 cells were seeded on a 384-well plate at 3000 cells/well, and 20 nM gemcitabine was added. After overnight adherence culture, DMSO or the compounds serially diluted 1:5 from 1000 nM were added. The viability was assessed 72 h after dosing by measuring the intracellular ATP content. The inhibition percentage of viable cells by the compounds was calculated by comparing with the DMSO group, and the IC50 value was calculated.

[4] = In vitro solubility experiment; type: physicochemical; conditions: for solubility at 0.5 h: organic solvent or mixture, thermodynamic from solid
Method: (§1) Preparation of a standard curve: 10.01 mg of sample was weighed out and placed in a volumetric flask, and the volume was brought to 10 mL with acetonitrile/water (v/v, 9/1) to prepare 1.001 mg/mL of standard solution; the standard solution was then serially diluted to 0.5005 mg/mL, 0.1001 mg/mL, 0.05005 mg/mL, 0.01001 mg/mL, and 0.001001 mg/mL to generate the standard curve, and a linear equation was fitted by taking the peak area of the sample as a vertical axis and the concentration as a horizontal axis.
(§2) Solubility and stability test: 15 mg of sample was added to 3 mL of vehicle (FaSSIF, FeSSIF, SGF, or water) to prepare a corresponding suspension at a target concentration of 5 mg/mL. The prepared suspension was stirred on a shaker (800 rpm) at 37° C. for 0.5 h, and the suspension was then filtered. The filtrate was diluted with a diluent to a corresponding multiple so that the peak height could not exceed the standard curve, and the solubility and purity were detected using HPLC.

[5] = test system: MDCK-MDR1; assay: in vitro; conditions: MDCK-MDR1
Method: (§3) In vitro passive permeability or the ability to serve as a P-glycoprotein (P-gp) transport substrate was tested using MDCK cells (MDCK wild type) or MDCK cells stably transduced with MDRI (MDCK-MDRI), respectively. The permeability experiment was performed in duplicate in a transwell system at a single concentration (5 μM). The cells were incubated for […] Apical-to-basolateral (A to B, A-B) transport and basolateral-to-apical (B to A, B-A) transport of the corresponding compound were determined, and the permeation rate (apparent permeability) (Papp×10^−6 cm/sec) and efflux ratio (Papp (B−A)/Papp (A−B)) of the test compound were calculated.

[6] = test system: MDCK-Wild type; assay: in vitro
Method: as §3

[7] = In vitro stability experiment (HPLC purity after stirring in vehicle); type: physicochemical
Method: as §1, §2

[8] = In vivo pharmacokinetic experiment in mice; set-up: species or system CD-1 female mice; conditions: mouse
Method: CD-1 female mice aged 7 to 10 weeks were intravenously administered and orally administered at a dose of 2 mg/kg and 10 mg/kg, respectively. The mice were fasted for at least 12 h before the administration and given food 4 h after the administration, and they were given ad libitum access to water during the experiment. On the day of the experiment, animals in the intravenous group were administered the corresponding compound by single injection via the tail vein at an administration volume of 10 mL/kg. Animals in the oral group were administered the corresponding compound by single intragastric injection at an administration volume of 10 mL/kg. The animals were weighed before administration, and the administration volume was calculated according to the body weight. The sample collection time was 0.083 h (injection group), 0.167 h, 0.5 h, 1 h, 2 h, 4 h, 8 h, and 24 h. About 200 μL of whole blood was collected through the submaxillary venous plexus at each time point and used to prepare plasma for concentration determination by high-performance liquid chromatography-tandem mass spectrometry (LC-MS/MS). All animals were euthanized with CO2 anesthesia after the PK samples were collected at the last time point. The plasma concentrations were processed using a non-compartmental model of Phoenix WinNonlin™ version 8.3 (Certara) pharmacokinetic software, and the pharmacokinetic parameters were calculated using a linear-log trapezoidal method.

[9] = in vitro; conditions: dog, MDCK
Method: as §3

[10] = test system: P-glycoprotein (P-gp, MDR1); assay: in vitro; conditions: dog
Method: as §3

[11] = read-out: Anti-proliferative activity against MIA PaCa-2 cells (20 nM gemcitabine) IC50, with 20 nM gemcitabine, 72 h, intracellular ATP content
[12] = stability in FaSSIF, initial pH 6.52, 37° C.
[13] = stability in FeSSIF, initial pH 4.98, 37° C.
[14] = stability in SGF, initial pH 1.2, 37° C.
[15] = stability in Water, initial pH 7.7, 37° C.
[16] = female, CD-1, plasma, iv, injection 2 mg/kg

SMILES: Cc1cc2c(C(N)=O)c(N)n(-c3c(C)c(O)cc(F)c3C)c2nc1C (single isomer, unassigned) [Compound 2]
- IC50 [1]: ≤ 200 nM
- IC50 ([2]; 72 h): 4320 nM
- IC50 [3, 11]: 18 nM
- anti-proliferative activity against MIA PaCa-2 cells in combination with gemcitabine (in words) ([3]; with 20 nM gemcitabine): stronger anti-proliferative activity than that of RP-6306
- solubility compared to RP-6306 (in words) ([4]; FaSSIF, FeSSIF, SGF, water, methanol, tetrahydrofuran): higher solubility in various vehicles
- Solubility 0.5 h ([4]; FaSSIF, initial pH 6.52, 37° C.): 61 µg/mL (≈ 0.178 mM)
- Solubility 0.5 h ([4]; FeSSIF, initial pH 4.98, 37° C.): 327 µg/mL (≈ 0.955 mM)
- Solubility 0.5 h ([4]; Methanol): 40568 µg/mL (≈ 118 mM)
- Solubility 0.5 h ([4]; SGF, initial pH 1.2, 37° C.): 4865 µg/mL (≈ 14.2 mM)
- Solubility 0.5 h ([4]; Tetrahydrofuran): 6114 µg/mL (≈ 17.9 mM)
- Solubility 0.5 h ([4]; Water, initial pH 7.7, 37° C.): 270 µg/mL (≈ 0.789 mM)
- Papp A-B Mean [5]: 20.50 10^−6 cm · s^−1
- Papp A-B Sample - 01 [5]: 21.08 10^−6 cm · s^−1
- Papp A-B Sample - 02 [5]: 19.91 10^−6 cm · s^−1
- Papp B-A Mean [5]: 35.01 10^−6 cm · s^−1
- Papp B-A Sample - 01 [5]: 35.27 10^−6 cm · s^−1
- Papp B-A Sample - 02 [5]: 34.76 10^−6 cm · s^−1
- permeability compared to RP-6306 (in words) [5]: superior permeability to that of RP-6306
- Papp A-B Mean [6]: 27.10 10^−6 cm · s^−1
- Papp A-B Sample - 01 [6]: 27.93 10^−6 cm · s^−1
- Papp A-B Sample - 02 [6]: 26.28 10^−6 cm · s^−1
- Papp B-A Mean [6]: 42.24 10^−6 cm · s^−1
- Papp B-A Sample - 01 [6]: 39.97 10^−6 cm · s^−1
- Papp B-A Sample - 02 [6]: 44.50 10^−6 cm · s^−1
- permeability compared to RP-6306 (in words) [6]: superior permeability to that of RP-6306
- stability compared to RP-6306 (in words) ([7]; FaSSIF, FeSSIF, water): more stable than RP-6306 in FaSSIF, FeSSIF, and water
- HPLC purity (%, 220 nm) 0.5 h [7, 12]: 88.76%
- HPLC purity (%, 220 nm) 0.5 h [7, 13]: 95.98%
- HPLC purity (%, 220 nm) 0.5 h [7, 14]: 98.69%
- HPLC purity (%, 220 nm) 0.5 h [7, 15]: 96.4%
- Vdss compared to RP-6306 (in words) [8]: greater increase in Vdss compared to RP-6306
- half-life T1/2 compared to RP-6306 (in words) [8]: longer half-life T1/2 compared to RP-6306
- AUC0-last ([8]; injection 2 mg/kg): 337.7 ng·h/mL
- Cl ([8]; injection 2 mg/kg): 94.4 mL/min/kg
- T1/2 ([8]; injection 2 mg/kg): 3.32 h
- Vdss ([8]; injection 2 mg/kg): 6.76 L/kg
- AUC0-last ([8]; oral administration 10 mg/kg): 638.2 ng·h/mL
- Cmax ([8]; oral administration 10 mg/kg): 603.3 ng/mL
- F % ([8]; oral administration 10 mg/kg): 44.5%
- T1/2 ([8]; oral administration 10 mg/kg): 3.84 h

SMILES: Cc1ccc(O)c(C)c1-n1c(N)c(C(N)=O)c2cc3c(nc21)COC3 [Compound 17]
- IC50 [1]: ≤ 200 nM
- IC50 ([2]; 72 h): > 10000 nM
- IC50 [3, 11]: > 1000 nM

SMILES: Cc1ccc(O)c(C)c1-n1c(N)c(C(N)=O)c2cc3c(nc21)CCN(C)C3 [Compound 97]
- IC50 [1]: ≤ 200 nM
- IC50 ([2]; Homo sapiens, MIA PaCa-2, 72 h): > 10000 nM
- IC50 [3, 11]: 101 nM

SMILES: Cc1cc2c(C(N)=O)c(N)n(-c3c(C)ccc(O)c3C)c2nc1C [RP-6306, reference compound]
- IC50 ([3]; Homo sapiens, MIA PaCa-2, 72 h, read-out: Anti-proliferative activity against MIA PaCa-2 cells (20 nM gemcitabine) IC50, with 20 nM gemcitabine, 72 h, intracellular ATP content): 29 nM
- solubility at 0.5 h ([4]; Methanol): 20200 µg/mL (≈ 62.2 mM)
- solubility at 0.5 h ([4]; Tetrahydrofuran): 4520 µg/mL (≈ 13.9 mM)
- efflux ratio at 90 min, 5 μM [9]: 2.17
- Papp A→B at 90 min, 5 µM ([9]; Papp A-B Mean): 17.1 ×10⁻⁶ cm/s
- Papp A→B at 90 min, 5 µM ([9]; Papp A-B Sample - 01): 15.1 ×10⁻⁶ cm/s
- Papp A→B at 90 min, 5 µM ([9]; Papp A-B Sample - 02): 19.1 ×10⁻⁶ cm/s
- Papp B→A at 90 min, 5 µM ([9]; Papp B-A Mean): 37.2 ×10⁻⁶ cm/s
- Papp B→A at 90 min, 5 µM ([9]; Papp B-A Sample - 01): 38.5 ×10⁻⁶ cm/s
- Papp B→A at 90 min, 5 µM ([9]; Papp B-A Sample - 02): 35.9 ×10⁻⁶ cm/s
- efflux ratio at 90 min, 5 μM ([10]; MDCK-MDR1): 2.64
- Papp A→B at 90 min, 5 µM ([10]; MDCK-MDR1, Papp A-B Mean): 13.9 ×10⁻⁶ cm/s
- Papp A→B at 90 min, 5 µM ([10]; MDCK-MDR1, Papp A-B Sample - 01): 13.9 ×10⁻⁶ cm/s
- Papp A→B at 90 min, 5 µM ([10]; MDCK-MDR1, Papp A-B Sample - 02): 14 ×10⁻⁶ cm/s
- Papp B→A at 90 min, 5 µM ([10]; MDCK-MDR1, Papp B-A Mean): 36.9 ×10⁻⁶ cm/s
- Papp B→A at 90 min, 5 µM ([10]; MDCK-MDR1, Papp B-A Sample - 01): 37.6 ×10⁻⁶ cm/s
- Papp B→A at 90 min, 5 µM ([10]; MDCK-MDR1, Papp B-A Sample - 02): 36.2 ×10⁻⁶ cm/s
- HPLC purity (%, 220 nm) 0.5 h [7, 12]: 58.88%
- HPLC purity (%, 220 nm) 0.5 h [7, 13]: 74.51%
- HPLC purity (%, 220 nm) 0.5 h [7, 14]: 98.18%
- HPLC purity (%, 220 nm) 0.5 h [7, 15]: 40.92%
- AUC(0-t) [8, 16]: 376 ng·h/mL
- half-life [8, 16]: 0.56 h
- Vd ([8]; female, CD-1, plasma, iv, injection 2 mg/kg, read-out: Vdss): 2.46 L/kg
- AUC(0-t) ([8]; female, CD-1, plasma, oral administration 10 mg/kg): 1030 ng·h/mL
- Cmax ([8]; female, CD-1, plasma, oral administration 10 mg/kg, read-out: Cmax): 881 ng/mL
- Cl ([8]; injection 2 mg/kg): 46.5 mL/min/kg
- F % ([8]; oral administration 10 mg/kg): 54.7%
